Consider 3 compounds from paper PMC7827085 (Pharmaceutics, 2021).

Structures are written as SMILES.

The target in data set [1] is T1, ABCB1/MDR1/Pgp (Homo sapiens, UniProt P08183). The data set can be described thus: in vitro. As to conditions: for Effect on ABCB1-dependent CaAM extrusion (in words): PLB-985/ABCB1 cells, test compounds 0.2–50 µM; for IC50 at 40 min: human. The method, then: (§1) For the ABC transporter assays, we used both cell-based and membrane-based functional assays. […] The respective transport activities were assayed by measuring the cellular fluorescence of the respective transported substrates Phengreen (ABCG2) and Calcein (ABCB1 and ABCC1).
(§2) The cells were kept on ice until the flow cytometry measurements. All experiments were performed in triplicate and in at least three biological parallels.
(§3) The cells were kept on ice until the flow cytometry measurements. All experiments were performed in triplicate and in at least three biological parallels. […] The PhenGreen (PG) or Calcein signal was detected in the BL1 channel (emission filter: 530/30 nm). Analysis of the data was carried out by the Attune Nxt Cytometer Software v3.1.2 (Thermo Fischer Scientific, Waltham, MA, USA). The inhibition of transporter activity was calculated by comparing the fluorescence in the presence of the test compound to that in the presence of a specific inhibitor providing maximum inhibition. […] Half-maximum inhibition (IC50) values were calculated by using the Origin2019 software (9.6.5.169, OriginLab Corporation, Northampton, MA, USA). […] In these experiments, we measured Hoechst dye extrusion in HeLa cells stably expressing eGFP and the ABCG2 variants driven by the same promoter—the transgenic cells generated by the Sleeping Beauty transposon system. […] For details, see Zámbó et al.). […] The maximum inhibition was defined for each variant as the fluorescence difference of the samples incubated with and without Ko143, respectively. […] Data analysis was performed using the Attune Nxt Cytometer Software v3.1.2. Two samples per condition and three biological replicates were examined in each experiment.
ABCB1 is a high-affinity active efflux transporter of the viability dye Calcein-AM (CaAM). […] Here, we applied this widely used cellular assay (see https://www.solvobiotech.com/services/categories/dye-efflux-assays) to characterize drug interactions of the applied compounds in intact PLB-985 cells, expressing high levels of the ABCB1 protein.

Data set [2] addresses T2, ABCC1/MRP1 (Homo sapiens, UniProt P33527). The data set can be described thus: in vitro. The note with it: for Effect on ABCC1-dependent CaAM extrusion (in words): HL60/ABCC1 cells; for IC50 at 40 min: human. The method, then: as §1, §2, §3
Therefore, we applied this assay to characterize the test drug interactions in intact HL60 cells expressing high levels of the ABCC1 protein.

For data set [3], the target named is T3, ABCG2/BCRP (Homo sapiens, UniProt Q9UNQ0).
T3 sequence (Q9UNQ0 1-655): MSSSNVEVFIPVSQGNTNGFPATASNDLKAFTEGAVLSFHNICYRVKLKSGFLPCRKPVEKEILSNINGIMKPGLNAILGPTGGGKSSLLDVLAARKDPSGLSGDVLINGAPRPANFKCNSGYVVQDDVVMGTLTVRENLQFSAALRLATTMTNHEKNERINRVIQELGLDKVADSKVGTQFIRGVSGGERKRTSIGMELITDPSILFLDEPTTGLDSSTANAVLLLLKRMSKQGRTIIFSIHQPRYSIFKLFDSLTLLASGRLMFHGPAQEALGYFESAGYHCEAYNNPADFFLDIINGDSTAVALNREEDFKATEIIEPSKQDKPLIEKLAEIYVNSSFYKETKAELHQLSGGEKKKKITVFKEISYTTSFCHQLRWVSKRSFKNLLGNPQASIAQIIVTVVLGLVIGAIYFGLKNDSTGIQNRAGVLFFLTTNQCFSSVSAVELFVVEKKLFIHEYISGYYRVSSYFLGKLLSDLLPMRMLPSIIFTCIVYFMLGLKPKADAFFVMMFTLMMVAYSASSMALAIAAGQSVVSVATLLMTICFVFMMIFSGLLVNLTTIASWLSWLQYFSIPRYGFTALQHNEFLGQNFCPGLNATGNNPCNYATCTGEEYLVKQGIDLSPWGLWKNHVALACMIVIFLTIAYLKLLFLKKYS
Put plainly: in vitro. The note with it: for Effect on ABCG2-dependent PG-DA extrusion (in words): PLB-985/ABCG2 cells; for IC50 at 40 min: human. The method, then:
as §1, §3
Here, we used both PhenGreen-SK diacetate and Hst dye for these measurements. The PhenGreen (PG) assay is a recently patented method applied for ensuring an efficient ABCG2 transport measurement, as the non-fluorescent PhenGreen diacetate (PG-DA) is actively extruded by ABCG2 and the cellular fluorescence is correlated with ABCG2 transport activity. Therefore, we applied this assay to characterize the test drug interactions in intact PLB-985 cells expressing high levels of the ABCG2 protein. […] ABCG2 inhibition by the test compounds was estimated by their relative (%) inhibition compared to full inhibition by Ko143.

Data set [4] has as its target T3, ABCG2/BCRP. Put plainly: in vitro. As to conditions: for IC50 at 10 min: human. The method, then:
These were employed at 37 °C for 10 min (ABCG2), 1 min (ABCB1), or 3 min (ABCC1), with or without 4 mM Mg-ATP, in a 50 μL final volume. The known reference inhibitors of the transporters (1 µM Ko143 for ABCG2, 1 µM Valspodar for ABCB1, and 200 µM Benzbromarone for ABCC1) served as controls. Each test compound was dissolved in DMSO and a 1 µL volume was added to the samples. After incubation, the samples were filtered and washed, and the substrates in the vesicles were dissolved in 10% SDS and transferred onto another plate. After the addition of a stabilizer, the fluorescence was measured in plate readers (Victor X3 and Enspire Perkin-Elmer, Waltham, MA, USA), while the activity of the radiolabeled substrate was measured by liquid scintillation counting (Perkin Elmer MicroBeta2 liquid scintillation counter, Perkin Elmer, Waltham, MA, USA). ABC transporter-related vesicular transport was calculated by subtracting uptake measured in the presence of Mg-AMP from the values measured in the presence of Mg-ATP.
The effects of the test compounds on ABCG2 activity were also measured in a vesicular transport assay by using inverted membrane vesicles prepared from HEK-293 cells expressing high levels of the ABCG2 transporter.

For data set [5], the target named is T2, ABCC1/MRP1. The note with it: Sf9/ABCC1 membrane vesicles.
Data set [6] deals with T1, ABCB1/MDR1/Pgp. The data set can be described thus: in vitro.

T1 sequence (P08183 whole entry): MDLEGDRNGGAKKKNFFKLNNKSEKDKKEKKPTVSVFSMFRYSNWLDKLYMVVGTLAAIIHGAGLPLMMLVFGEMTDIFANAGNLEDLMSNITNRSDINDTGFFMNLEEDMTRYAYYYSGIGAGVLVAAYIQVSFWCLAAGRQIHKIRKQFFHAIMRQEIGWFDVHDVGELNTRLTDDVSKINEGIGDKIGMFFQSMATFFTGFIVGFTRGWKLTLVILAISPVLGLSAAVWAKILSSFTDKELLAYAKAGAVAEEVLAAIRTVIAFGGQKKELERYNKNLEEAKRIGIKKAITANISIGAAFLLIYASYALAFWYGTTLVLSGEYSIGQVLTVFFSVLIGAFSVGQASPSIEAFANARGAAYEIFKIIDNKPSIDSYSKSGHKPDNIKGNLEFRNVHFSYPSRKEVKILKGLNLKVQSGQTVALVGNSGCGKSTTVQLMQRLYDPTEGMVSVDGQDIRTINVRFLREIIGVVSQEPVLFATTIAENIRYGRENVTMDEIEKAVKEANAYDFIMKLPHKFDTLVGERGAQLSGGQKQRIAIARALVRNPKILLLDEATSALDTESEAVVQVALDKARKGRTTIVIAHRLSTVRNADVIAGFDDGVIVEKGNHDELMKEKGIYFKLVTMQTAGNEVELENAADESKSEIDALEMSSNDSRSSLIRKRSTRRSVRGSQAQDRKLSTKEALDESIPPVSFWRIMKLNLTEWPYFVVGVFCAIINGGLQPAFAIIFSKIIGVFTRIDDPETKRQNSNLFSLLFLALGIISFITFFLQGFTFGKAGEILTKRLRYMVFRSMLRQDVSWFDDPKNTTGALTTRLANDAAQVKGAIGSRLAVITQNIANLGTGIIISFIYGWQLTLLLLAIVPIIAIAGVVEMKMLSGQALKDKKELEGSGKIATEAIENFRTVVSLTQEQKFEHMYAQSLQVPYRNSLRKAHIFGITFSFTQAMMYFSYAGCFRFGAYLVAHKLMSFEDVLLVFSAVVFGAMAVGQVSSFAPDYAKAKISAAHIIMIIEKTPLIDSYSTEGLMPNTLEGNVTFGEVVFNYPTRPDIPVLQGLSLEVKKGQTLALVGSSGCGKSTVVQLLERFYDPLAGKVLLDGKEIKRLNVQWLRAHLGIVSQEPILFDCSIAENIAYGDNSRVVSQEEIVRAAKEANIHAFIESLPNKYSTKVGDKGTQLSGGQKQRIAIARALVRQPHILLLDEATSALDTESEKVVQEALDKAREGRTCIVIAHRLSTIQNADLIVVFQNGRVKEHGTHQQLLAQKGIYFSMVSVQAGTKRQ
T2 sequence (P33527 whole entry): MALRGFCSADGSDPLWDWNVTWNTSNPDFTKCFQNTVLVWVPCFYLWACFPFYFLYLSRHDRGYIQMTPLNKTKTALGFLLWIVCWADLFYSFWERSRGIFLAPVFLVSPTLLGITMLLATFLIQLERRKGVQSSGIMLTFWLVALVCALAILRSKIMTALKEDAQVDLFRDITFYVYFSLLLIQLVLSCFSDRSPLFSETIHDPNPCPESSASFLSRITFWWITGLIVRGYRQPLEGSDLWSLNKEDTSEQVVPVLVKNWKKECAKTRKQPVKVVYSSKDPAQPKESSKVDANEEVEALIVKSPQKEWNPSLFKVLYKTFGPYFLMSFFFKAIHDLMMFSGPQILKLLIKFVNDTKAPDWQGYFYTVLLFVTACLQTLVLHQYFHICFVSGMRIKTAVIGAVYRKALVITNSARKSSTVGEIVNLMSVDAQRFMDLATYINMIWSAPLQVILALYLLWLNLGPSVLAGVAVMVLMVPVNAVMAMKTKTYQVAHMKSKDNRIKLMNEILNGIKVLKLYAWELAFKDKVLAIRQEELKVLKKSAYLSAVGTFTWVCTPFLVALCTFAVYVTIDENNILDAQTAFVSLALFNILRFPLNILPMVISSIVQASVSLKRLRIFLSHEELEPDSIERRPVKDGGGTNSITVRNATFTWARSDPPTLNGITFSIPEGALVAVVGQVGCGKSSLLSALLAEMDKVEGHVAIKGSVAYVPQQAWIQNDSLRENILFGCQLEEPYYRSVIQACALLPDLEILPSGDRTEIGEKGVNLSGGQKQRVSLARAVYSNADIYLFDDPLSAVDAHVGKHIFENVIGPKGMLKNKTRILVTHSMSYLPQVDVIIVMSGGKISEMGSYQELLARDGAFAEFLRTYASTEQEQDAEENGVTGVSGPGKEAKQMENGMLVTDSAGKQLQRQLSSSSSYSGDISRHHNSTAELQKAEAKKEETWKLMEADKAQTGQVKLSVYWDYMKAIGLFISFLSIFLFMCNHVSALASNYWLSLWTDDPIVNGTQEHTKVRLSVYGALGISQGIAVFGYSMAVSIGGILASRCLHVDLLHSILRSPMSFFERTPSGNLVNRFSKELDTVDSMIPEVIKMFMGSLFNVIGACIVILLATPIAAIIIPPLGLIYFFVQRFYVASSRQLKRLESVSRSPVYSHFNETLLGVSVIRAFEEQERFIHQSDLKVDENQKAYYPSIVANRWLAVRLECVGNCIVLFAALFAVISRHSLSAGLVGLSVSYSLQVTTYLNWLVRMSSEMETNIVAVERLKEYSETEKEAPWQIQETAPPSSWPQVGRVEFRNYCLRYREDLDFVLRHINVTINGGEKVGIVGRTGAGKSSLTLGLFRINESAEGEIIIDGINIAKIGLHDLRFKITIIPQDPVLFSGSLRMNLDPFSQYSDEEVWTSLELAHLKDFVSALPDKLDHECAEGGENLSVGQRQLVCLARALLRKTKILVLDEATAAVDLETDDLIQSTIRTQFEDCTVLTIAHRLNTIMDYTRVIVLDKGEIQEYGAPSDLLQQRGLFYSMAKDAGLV

As to `NC(=O)c1nc(F)c[nH]c1=O` [favipiravir], at ABCB1/MDR1/Pgp [1], the “Effect on ABCB1-dependent CaAM extrusion (in words)” value was “did not significantly inhibit”. The half-inhibitory concentration (IC50) at 40 min on ABCB1/MDR1/Pgp [1] (intact PLB-985 cells expressing ABCB1, probe Calcein-AM, 0.25 µM) was over 50 µM; at ABCC1/MRP1 [2] (intact HL60 cells expressing ABCC1, probe Calcein-AM, 0.25 µM) it was over 50 µM; against ABCG2/BCRP [3] (intact PLB-985 cells expressing ABCG2, probe PhenGreen-SK diacetate, 0.25 µM), over 50 µM. For the same compound, the “Effect on ABCC1-dependent CaAM extrusion (in words)” value at ABCC1/MRP1 [2] is “did not significantly inhibit”. The “Effect on ABCG2-dependent PG-DA extrusion (in words)” value at ABCG2/BCRP [3] is on record as “practically no effect”. Further, the IC50 at 10 min against ABCG2/BCRP [4] (probe lucifer yellow, 5 µM) was over 50 µM. In addition, at ABCC1/MRP1 [5], the “Effect on ABCC1 vesicular ETGB transport (in words)” value is given as “practically no effect”. Besides, on ABCB1/MDR1/Pgp [6] (probe 3H-N-methyl-quinidine (NMQ), 1 µM), the IC50 at 1 min was over 50 µM.

As for `CCN(CCO)CCCC(C)Nc1ccnc2cc(Cl)ccc12` (stereo not drawn) [hydroxychloroquine], at ABCB1/MDR1/Pgp [1], the “Effect on ABCB1-dependent CaAM extrusion (in words)” value is “practically no effect” and the IC50 at 40 min was over 50 µM. For the same compound, on ABCC1/MRP1 [2], the “Effect on ABCC1-dependent CaAM extrusion (in words)” value is reported as “practically no effect” and the half-inhibitory concentration (IC50) at 40 min was over 50 µM. Also, on ABCG2/BCRP [3], the “Effect on ABCG2-dependent PG-DA extrusion (in words)” value is “practically no effect” and the IC50 at 40 min was over 50 µM. The “Effect on ABCG2 ATP-dependent LY uptake (in words)” value on ABCG2/BCRP [4] (HEK-293/ABCG2 membrane vesicles) is “practically no effect”. Also, the IC50 at 10 min on ABCG2/BCRP [4] was over 50 µM. Also, the “Effect on ABCC1 vesicular ETGB transport (in words)” value on ABCC1/MRP1 [5] is “practically no effect”. Moreover, the IC50 at 1 min at ABCB1/MDR1/Pgp [6] (Estimated Transporter Inhibition IC50, ABCB1 vesicular assay, ATP-dependent NMQ uptake, HEK-293/ABCB1 inverted membrane vesicles, '-' = no inhibition) was over 50 µM.

For the compound `CCC(CC)COC(=O)[C@H](C)N[P@](=O)(OC[C@H]1O[C@@](C#N)(c2ccc3c(N)ncnn23)[C@H](O)[C@@H]1O)Oc1ccccc1` [remdesivir], at ABCB1/MDR1/Pgp [1], the “Effect on ABCB1-dependent CaAM extrusion (in words)” value is listed as “did not significantly inhibit” and the IC50 at 40 min is over 50 µM. Also, on ABCC1/MRP1 [2], the “Effect on ABCC1-dependent CaAM extrusion (in words)” value is given as “did not significantly inhibit”. Further, the IC50 at 40 min at ABCG2/BCRP [3] is over 50 µM. On ABCG2/BCRP [4], this compound showed an IC50 of over 20 µM and an IC50 at 10 min of over 50 µM. For the same compound, on ABCC1/MRP1 [5], the “Concentration above which ABCC1 vesicular ETGB transport was stimulated” value is “above 25 μM” and the “Effect on ABCC1 vesicular ETGB transport (in words)” value is given as “significantly stimulated”.

For orientation: IC50 means the concentration that inhibits the measured activity by half.
